Data on 6 compounds can be found in the NIST ThermoML archive (doi:10.1021/je034197x).

What is called vapor or sublimation pressure is the pressure of vapour in equilibrium with the condensed phase.

For the data set the following is noted: Liquid, Closed cell (Static) method.

± gives the expanded uncertainty stated by the source.

Consider `CO` [methanol], for which the “vapor or sublimation pressure” value is, setting by setting: (298.15 K) 16.95 ± 0.046 kPa; (303.15 K) 21.88 ± 0.058 kPa; (308.15 K) 27.98 ± 0.073 kPa; (313.15 K) 35.51 ± 0.092 kPa; (318.15 K) 44.59 ± 0.11 kPa; (323.15 K) 55.65 ± 0.14 kPa. Further, the “vapor or sublimation pressure” value came to 68.94 ± 0.17 kPa (328.15 K) and 84.62 ± 0.21 kPa (333.15 K).

On to `CCCCO` [butan-1-ol], for which the “vapor or sublimation pressure” value reads like this: (298.15 K) 1.003 ± 0.2 kPa; (303.15 K) 1.317 ± 0.2 kPa; (308.15 K) 1.841 ± 0.2 kPa; (313.15 K) 2.544 ± 0.2 kPa; (318.15 K) 3.453 ± 0.2 kPa; (323.15 K) 4.648 ± 0.2 kPa. For the same compound, the “vapor or sublimation pressure” value (328.15 K) was 6.171 ± 0.2 kPa; the “vapor or sublimation pressure” value (333.15 K) turned out to be 8.103 ± 0.2 kPa; the “vapor or sublimation pressure” value (338.15 K) is given as 10.56 ± 0.2 kPa; the “vapor or sublimation pressure” value (343.15 K) is 13.6 ± 0.2 kPa; the “vapor or sublimation pressure” value (348.15 K) came to 17.37 ± 0.2 kPa; the “vapor or sublimation pressure” value (353.15 K) amounted to 21.98 ± 0.2 kPa. Further, the “vapor or sublimation pressure” value came out at 27.65 ± 0.2 kPa (358.15 K) and 34.41 ± 0.21 kPa (363.15 K).

In the case of `CCC(C)O` (stereo not drawn) [butan-2-ol], the “vapor or sublimation pressure” value reads like this: (298.15 K) 2.44 ± 0.2 kPa; (303.15 K) 3.373 ± 0.2 kPa; (308.15 K) 4.588 ± 0.2 kPa; (313.15 K) 6.234 ± 0.2 kPa; (318.15 K) 8.252 ± 0.2 kPa; (323.15 K) 10.86 ± 0.2 kPa. Also, the “vapor or sublimation pressure” value reads like this: (328.15 K) 14.13 ± 0.2 kPa; (333.15 K) 18.34 ± 0.2 kPa; (338.15 K) 23.49 ± 0.2 kPa; (343.15 K) 29.71 ± 0.21 kPa; (348.15 K) 37.2 ± 0.21 kPa; (353.15 K) 46.36 ± 0.21 kPa. The “vapor or sublimation pressure” value is given as 57.16 ± 0.22 kPa (358.15 K) and 70.24 ± 0.23 kPa (363.15 K).

On to `CCO` [ethanol], for which the “vapor or sublimation pressure” value runs as follows: (298.15 K) 7.916 ± 0.024 kPa; (303.15 K) 10.54 ± 0.031 kPa; (308.15 K) 13.84 ± 0.039 kPa; (313.15 K) 17.98 ± 0.049 kPa; (318.15 K) 23.17 ± 0.062 kPa; (323.15 K) 29.58 ± 0.077 kPa. Moreover, the “vapor or sublimation pressure” value runs as follows: (328.15 K) 37.46 ± 0.097 kPa; (333.15 K) 46.95 ± 0.12 kPa; (338.15 K) 58.58 ± 0.15 kPa; (343.15 K) 72.24 ± 0.18 kPa; (348.15 K) 88.66 ± 0.22 kPa.

`CC(C)O` [propan-2-ol]: the “vapor or sublimation pressure” value amounted to 5.799 ± 0.2 kPa (298.15 K); 7.859 ± 0.2 kPa (303.15 K); 10.52 ± 0.2 kPa (308.15 K); 13.94 ± 0.2 kPa (313.15 K); 18.24 ± 0.2 kPa (318.15 K); 23.64 ± 0.2 kPa (323.15 K). Moreover, the “vapor or sublimation pressure” value (328.15 K) was determined as 30.35 ± 0.21 kPa; the “vapor or sublimation pressure” value (333.15 K) was 38.59 ± 0.21 kPa; the “vapor or sublimation pressure” value (338.15 K) was 48.66 ± 0.21 kPa; the “vapor or sublimation pressure” value (343.15 K) was determined as 60.66 ± 0.22 kPa; the “vapor or sublimation pressure” value (348.15 K) came to 75.22 ± 0.23 kPa; the “vapor or sublimation pressure” value (353.15 K) was 92.44 ± 0.24 kPa.

For the compound `CCCO` [propan-1-ol], the “vapor or sublimation pressure” value is 2.88 ± 0.013 kPa (298.15 K); 3.998 ± 0.015 kPa (303.15 K); 5.374 ± 0.018 kPa (308.15 K); 7.197 ± 0.023 kPa (313.15 K); 9.568 ± 0.028 kPa (318.15 K); 12.42 ± 0.035 kPa (323.15 K). Further, the “vapor or sublimation pressure” value (328.15 K) amounted to 16.14 ± 0.044 kPa; the “vapor or sublimation pressure” value (333.15 K) was 20.72 ± 0.055 kPa; the “vapor or sublimation pressure” value (338.15 K) is 26.41 ± 0.069 kPa; the “vapor or sublimation pressure” value (343.15 K) stood at 33.23 ± 0.086 kPa; the “vapor or sublimation pressure” value (348.15 K) came to 41.63 ± 0.11 kPa; the “vapor or sublimation pressure” value (353.15 K) stood at 51.67 ± 0.13 kPa. For the same compound, the “vapor or sublimation pressure” value by setting is: (358.15 K) 63.69 ± 0.16 kPa; (363.15 K) 77.81 ± 0.2 kPa.
